Earlier results as cited in US8197795B2, “Method for monitoring early treatment response” (Receptomon, LLC, priority 2004, dated 2012).

Key:
[1] = system: xenograft models, including colon cancer, non-small cell lung cancer (NSCLC), and prostate cancer; settings: Ranson et al.
solid, malignant tumors = settings: patients with solid, Ranson et al. 2002
NSCLC = NSCLC patients treated with gefitinib; Lynch et al. 2004

## COc1cc2ncnc(Nc3ccc(F)c(Cl)c3)c2cc1OCCCN1CCOCC1 [gefitinib]
[1]
  activity in xenograft models: active
solid, malignant tumors
  activity in patients: active
NSCLC
  patients with a rapid and often dramatic clinical response: about 10%
